# Test results: ChEMBL document CHEMBL3639137, “3H-imidazo [4, 5-C] pyridine-6-carboxamides as anti-inflammatory agents” (2014)
# Target: T1, Prostaglandin E synthase (Homo sapiens, UniProt O14684)
# T1 sequence (O14684 whole entry): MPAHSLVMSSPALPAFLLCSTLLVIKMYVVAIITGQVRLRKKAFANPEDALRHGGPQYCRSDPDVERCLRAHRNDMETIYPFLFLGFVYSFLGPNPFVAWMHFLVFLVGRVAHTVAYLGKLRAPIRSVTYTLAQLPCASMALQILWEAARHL
# Test: Enzyme Assay: The aim of this assay is to determine the affinity of a test compound for the mPGES-1 enzyme. 47 ul of recombinant human mPGES-1 (0.5 ug protein/well) containing microsomal suspension in a buffer containing GSH, (2.5 mmol/L L-Glutathione reduced, dissolved in 0.1 mol/L Phosphat Buffer pH 7.4) is dispensed in a 384-well plate and thereafter 1 ul of the test compound(s) is/are added and incubated for 25 minutes at room temperature. The enzyme reaction is started by the addition of 2 ul PGH2 (final conc. 2 uM) dissolved in water-free Diglyme. After 60 seconds the reaction is terminated by addition of a stop solution containing FeCl2 (10 uL 0.074 mol/l FeCl2). The samples are diluted between 1:25 in PBS (Phosphate Buffered Saline). 10 ul of the diluted samples are transferred to 384-well low volume plate.
row,Structure (SMILES),IC50
1,CC(C)(C)C(=O)NCc1ccc(Cl)c(Nc2nc3c(F)c(OCC(F)(F)F)c(C(=O)N[C@H]4CC[C@H](C(F)(F)F)CC4)cc3[nH]2)c1Cl,2 nM
2,Cn1c(Nc2c(Cl)ccc(CNC(=O)C(C)(C)C)c2Cl)nc2cc(C(=O)Nc3ccc(Br)cc3)c(F)cc21,2 nM
3,CC(C)(C)C(=O)NCc1ccc(Cl)c(Nc2nc3cc(OC(F)F)c(C(=O)N[C@H]4CC[C@H](C(F)(F)F)CC4)cc3[nH]2)c1Cl,2 nM
4,Cn1c(Nc2c(Cl)ccc(CNC(=O)C(C)(C)C)c2Cl)nc2cc(C(=O)Nc3cccc(C#N)c3)c(OCC(F)F)cc21,3 nM
